Source: the supplement of paper PMC10307832

Columns and labels:
Experiment in all cases: relative viability (nuclei count vs DMSO), 5 days (fraction); higher = more cells survive
NCI-H1734 = system: NCI-H1734
Procedure, shortened: (§1)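 Five library-drug doses in √10 steps were combined with a fixed anchor-drug dose, or a single drug was given alone, by pin tool to lung cancer cell lines in 1536-well plates the day after seeding. Nuclei were stained and counted after 5 days. Relative viability is the nuclei count in treated wells over that in vehicle wells, taken as the median of duplicate plates.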

NCI-H1755 = system: NCI-H1755
Procedure, shortened: as §1

PC-14 = system: PC-14
Procedure, shortened: as §1

NCI-H2228 = system: NCI-H2228
Procedure, shortened: as §1

H3255 = system: H3255
Procedure, shortened: as §1

NCI-H1355 = system: NCI-H1355
Procedure, shortened: as §1

NCI-H2342 = system: NCI-H2342
Procedure, shortened: as §1

NCI-H661 = system: NCI-H661
Procedure, shortened: as §1

LK-2 = system: LK-2
Procedure, shortened: as §1

NCI-H2405 = system: NCI-H2405
Procedure, shortened: as §1

NCI-H1650 = system: NCI-H1650
Procedure, shortened: as §1

PC-3 [JPC-3] = system: PC-3 [JPC-3]
Procedure, shortened: as §1

NCI-H520 = system: NCI-H520
Procedure, shortened: as §1

NCI-H1975 = system: NCI-H1975
Procedure, shortened: as §1

CAL-12T = system: CAL-12T
Procedure, shortened: as §1

EKVX = system: EKVX
Procedure, shortened: as §1

NCI-H322M = system: NCI-H322M
Procedure, shortened: as §1

HCC-827 = system: HCC-827
Procedure, shortened: as §1

RERF-LC-KJ = system: RERF-LC-KJ
Procedure, shortened: as §1

LCLC-97TM1 = system: LCLC-97TM1
Procedure, shortened: as §1

HCC-15 = system: HCC-15
Procedure, shortened: as §1

For `COc1cc2nccc(Oc3ccc(NC(=O)Nc4cc(C)on4)c(Cl)c3)c2cc1OC` [Tivozanib] + CC(=O)Nc1cccc(-n2c(=O)n(C3CC3)c(=O)c3c(Nc4ccc(I)cc4F)n(C)c(=O)c(C)c32)c1 [Trametinib] (partner 0.02 µM), the relative viability (NCI-H1734; first compound 0.005 µM) was 0.645, the relative viability (NCI-H1734; first compound 0.01581 µM) was 0.642 and the relative viability (NCI-H1734; first compound 0.05 µM) was 0.666. The relative viability (NCI-H1734; first compound 0.1581 µM) was 0.479, the relative viability (NCI-H1734; first compound 0.5 µM) was 0.638 and the relative viability (NCI-H1755; first compound 0.005 µM) was 0.664. The relative viability (NCI-H1755; first compound 0.01581 µM) was 0.75, the relative viability (NCI-H1755; first compound 0.05 µM) was 0.804 and the relative viability (NCI-H1755; first compound 0.1581 µM) was 0.739. The relative viability (NCI-H1755; first compound 0.5 µM) was 0.77, the relative viability (PC-14; first compound 0.005 µM) was 0.654 and the relative viability (PC-14; first compound 0.01581 µM) was 0.766. The relative viability (PC-14; first compound 0.05 µM) was 0.844, the relative viability (PC-14; first compound 0.1581 µM) was 0.84 and the relative viability (PC-14; first compound 0.5 µM) was 0.751. The relative viability (NCI-H2228; first compound 0.005 µM) was 0.55, the relative viability (NCI-H2228; first compound 0.01581 µM) was 0.595 and the relative viability (NCI-H2228; first compound 0.05 µM) was 0.514. The relative viability (NCI-H2228; first compound 0.1581 µM) was 0.249, the relative viability (NCI-H2228; first compound 0.5 µM) was 0.539 and the relative viability (H3255; first compound 0.005 µM) was 0.531. The relative viability (H3255; first compound 0.01581 µM) was 0.61, the relative viability (H3255; first compound 0.05 µM) was 0.659 and the relative viability (H3255; first compound 0.1581 µM) was 0.608. It also gave a relative viability (H3255; first compound 0.5 µM) of 0.59, a relative viability (NCI-H1355; first compound 0.005 µM) of 0.413 and a relative viability (NCI-H1355; first compound 0.01581 µM) of 0.432. It also gave a relative viability (NCI-H1355; first compound 0.05 µM) of 0.455, a relative viability (NCI-H1355; first compound 0.1581 µM) of 0.33 and a relative viability (NCI-H1355; first compound 0.5 µM) of 0.408. For the same compound, the relative viability (NCI-H2342; first compound 0.005 µM) was 0.823, the relative viability (NCI-H2342; first compound 0.01581 µM) was 0.834 and the relative viability (NCI-H2342; first compound 0.05 µM) was 1.92. The relative viability (NCI-H2342; first compound 0.5 µM) was 0.733, the relative viability (NCI-H661; first compound 0.005 µM) was 0.588 and the relative viability (NCI-H661; first compound 0.01581 µM) was 0.562. It also gave a relative viability (NCI-H661; first compound 0.05 µM) of 0.618, a relative viability (NCI-H661; first compound 0.1581 µM) of 0.522 and a relative viability (NCI-H661; first compound 0.5 µM) of 0.641. For the same compound, the relative viability (LK-2; first compound 0.005 µM) was 0.933, the relative viability (LK-2; first compound 0.01581 µM) was 0.534 and the relative viability (LK-2; first compound 0.05 µM) was 0.622. It also gave a relative viability (LK-2; first compound 0.1581 µM) of 0.85, a relative viability (LK-2; first compound 0.5 µM) of 0.773 and a relative viability (NCI-H2405; first compound 0.005 µM) of 0.543. The relative viability (NCI-H2405; first compound 0.01581 µM) was 0.664, the relative viability (NCI-H2405; first compound 0.05 µM) was 0.607 and the relative viability (NCI-H2405; first compound 0.1581 µM) was 0.499. It also gave a relative viability (NCI-H2405; first compound 0.5 µM) of 0.554, a relative viability (NCI-H1650; first compound 0.005 µM) of 0.592 and a relative viability (NCI-H1650; first compound 0.01581 µM) of 0.582. The relative viability (NCI-H1650; first compound 0.05 µM) was 0.584, the relative viability (NCI-H1650; first compound 0.1581 µM) was 0.545 and the relative viability (NCI-H1650; first compound 0.5 µM) was 0.547. It also gave a relative viability (PC-3 [JPC-3]; first compound 0.01581 µM) of 0.686, a relative viability (PC-3 [JPC-3]; first compound 0.05 µM) of 0.807 and a relative viability (PC-3 [JPC-3]; first compound 0.1581 µM) of 0.674. It also gave a relative viability (PC-3 [JPC-3]; first compound 0.5 µM) of 0.811, a relative viability (NCI-H520; first compound 0.005 µM) of 0.658 and a relative viability (NCI-H520; first compound 0.01581 µM) of 0.771. The relative viability (NCI-H520; first compound 0.05 µM) was 0.612, the relative viability (NCI-H520; first compound 0.1581 µM) was 0.475 and the relative viability (NCI-H520; first compound 0.5 µM) was 0.646. It also gave a relative viability (NCI-H1975; first compound 0.005 µM) of 0.296, a relative viability (NCI-H1975; first compound 0.01581 µM) of 0.39 and a relative viability (NCI-H1975; first compound 0.05 µM) of 0.442. It also gave a relative viability (NCI-H1975; first compound 0.1581 µM) of 0.256, a relative viability (NCI-H1975; first compound 0.5 µM) of 0.312 and a relative viability (CAL-12T; first compound 0.005 µM) of 0.297. For the same compound, the relative viability (CAL-12T; first compound 0.01581 µM) was 0.356, the relative viability (CAL-12T; first compound 0.05 µM) was 0.414 and the relative viability (CAL-12T; first compound 0.1581 µM) was 0.235. For the same compound, the relative viability (CAL-12T; first compound 0.5 µM) was 0.408, the relative viability (EKVX; first compound 0.005 µM) was 0.32 and the relative viability (EKVX; first compound 0.01581 µM) was 0.467. It also gave a relative viability (EKVX; first compound 0.05 µM) of 0.477, a relative viability (EKVX; first compound 0.1581 µM) of 0.292 and a relative viability (EKVX; first compound 0.5 µM) of 0.345. It also gave a relative viability (NCI-H322M; first compound 0.005 µM) of 0.509, a relative viability (NCI-H322M; first compound 0.01581 µM) of 0.602 and a relative viability (NCI-H322M; first compound 0.05 µM) of 0.55. It also gave a relative viability (NCI-H322M; first compound 0.1581 µM) of 0.517, a relative viability (NCI-H322M; first compound 0.5 µM) of 0.577 and a relative viability (HCC-827; first compound 0.005 µM) of 0.52. It also gave a relative viability (HCC-827; first compound 0.01581 µM) of 0.543, a relative viability (HCC-827; first compound 0.05 µM) of 0.571 and a relative viability (HCC-827; first compound 0.1581 µM) of 0.527. For the same compound, the relative viability (HCC-827; first compound 0.5 µM) was 0.533, the relative viability (RERF-LC-KJ; first compound 0.005 µM) was 0.758 and the relative viability (RERF-LC-KJ; first compound 0.01581 µM) was 0.989. For the same compound, the relative viability (RERF-LC-KJ; first compound 0.05 µM) was 0.805, the relative viability (RERF-LC-KJ; first compound 0.1581 µM) was 0.859 and the relative viability (RERF-LC-KJ; first compound 0.5 µM) was 0.805. It also gave a relative viability (LCLC-97TM1; first compound 0.005 µM) of 0.15, a relative viability (LCLC-97TM1; first compound 0.01581 µM) of 0.194 and a relative viability (LCLC-97TM1; first compound 0.05 µM) of 0.206. For the same compound, the relative viability (LCLC-97TM1; first compound 0.1581 µM) was 0.165, the relative viability (LCLC-97TM1; first compound 0.5 µM) was 0.273 and the relative viability (HCC-15; first compound 0.005 µM) was 0.391. For the same compound, the relative viability (HCC-15; first compound 0.01581 µM) was 0.365, the relative viability (HCC-15; first compound 0.05 µM) was 0.364 and the relative viability (HCC-15; first compound 0.1581 µM) was 0.422. For the same compound, the relative viability (HCC-15; first compound 0.5 µM) was 0.395.
